Data published in patent US20250281462A1, “THERAPEUTICALLY EFFECTIVE ORAL ADMINISTRATION OF A 2 ARYLBENZIMIDAZOLE” (Tranquis Therapeutics, Inc., priority 2021, published 2025).
Where “and” joins values, the source holds several entries; their conditions need not be identical. Equal values may be shown once. Entries after “also recorded” stand apart in the source; their conditions may differ.

Key:
IL-6 = experiment: LPS-stimulated IL-6 secretion from human PBMCs (ELISA); assay type: cell-based; settings: LPS 1 ng/mL, 24 h
Protocol: (§1) The principal metabolites from liver metabolism of TQS-168 following oral administration have been described. See Sun et al., Rapid Commun. Mass Spectrom. 32:480-488 (2018), incorporated herein by reference. We synthesized the phase 1 metabolites from liver metabolism of TQS-168 illustrated in FIG. 20 and tested them for the ability to inhibit LPS-stimulated secretion of pro-inflammatory cytokines in vitro.
(§2) Briefly, 20,000 human PBMC were aliquoted into each well. LPS was added at 1 ng/mL and the cells incubated for 24 h in the presence of LPS and TQS-168 or one of its metabolites. Readouts were human IL-6 ELISA and human TNFα ELISA. For assay, supernatants were diluted in culture medium. The supernatant dilution for the IL-6 ELISA was 1:8, and the 1:2 for the human TNFα ELISA.

TNFα = experiment: LPS-stimulated TNFα secretion from human PBMCs (ELISA); assay type: cell-based; settings: LPS 1 ng/mL, 24 h
Protocol: as §1, §2

clinical = settings: male, human, in vivo, po; for half-life: T1/2

In the case of `CC(C)(C)c1ccc(-c2nc3cc(O)ccc3[nH]2)cc1` [TQS-621], the “inhibition of LPS-stimulated IL-6 secretion” value (IL-6) is reported as “potently inhibits; also recorded: potent inhibitor”, the “inhibition of LPS-stimulated TNFα secretion” value (TNFα) is reported as “potently inhibits; also recorded: potent inhibitor” and the AUC(0-t) (clinical; 60 mg, AUC(0-24)) is reported as 383 ng·h/mL. The AUC(0-inf) (clinical; 60 mg) was 410 ng·h/mL, the AUC(0-t) (clinical; 60 mg, AUC(0-last)) was 401 ng·h/mL and the Cmax (clinical; 60 mg) was 65.3 ng/mL and 250 nM. It also gave a half-life (clinical; 60 mg) of 4.89 h, a Tmax (clinical; 60 mg) of 2.5 h and an AUC(0-t) (clinical; 90 mg, AUC(0-24)) of 1170 ng·h/mL. For the same compound, the AUC(0-inf) (clinical; 90 mg) was 1200 ng·h/mL, the Cmax (clinical; 90 mg) was 214 ng/mL and 800 nM and the half-life (clinical; 180 mg) was 9.1 h. The Tmax (clinical; 180 mg) was 1.5 h, the AUC(0-t) (clinical; 270 mg, AUC(0-24)) was 4250 ng·h/mL and the AUC(0-inf) (clinical; 270 mg) was 4950 ng·h/mL. For the same compound, the AUC(0-t) (clinical; 270 mg, AUC(0-last)) was 4760 ng·h/mL, the Cmax (clinical; 270 mg) was 2330 nM and the half-life (clinical; 270 mg) was 10.4 h. It also gave a Tmax (clinical; 270 mg) of 2 h, an AUC(0-t) (clinical; 540 mg, AUC(0-24)) of 10800 ng·h/mL and an AUC(0-inf) (clinical; 540 mg) of 12700 ng·h/mL. The AUC(0-t) (clinical; 540 mg, AUC(0-last)) was 12000 ng·h/mL, the Cmax (clinical; 540 mg) was 1110 ng/mL and 4.17 µM and the half-life (clinical; 540 mg) was 11.3 h. The Tmax (clinical; 540 mg) was 4 h.
